Target: SGK1 (human) (UniProt O00141)
Assay: Flashplate

SGK1 (human), sequence (O00141 whole entry, looked up): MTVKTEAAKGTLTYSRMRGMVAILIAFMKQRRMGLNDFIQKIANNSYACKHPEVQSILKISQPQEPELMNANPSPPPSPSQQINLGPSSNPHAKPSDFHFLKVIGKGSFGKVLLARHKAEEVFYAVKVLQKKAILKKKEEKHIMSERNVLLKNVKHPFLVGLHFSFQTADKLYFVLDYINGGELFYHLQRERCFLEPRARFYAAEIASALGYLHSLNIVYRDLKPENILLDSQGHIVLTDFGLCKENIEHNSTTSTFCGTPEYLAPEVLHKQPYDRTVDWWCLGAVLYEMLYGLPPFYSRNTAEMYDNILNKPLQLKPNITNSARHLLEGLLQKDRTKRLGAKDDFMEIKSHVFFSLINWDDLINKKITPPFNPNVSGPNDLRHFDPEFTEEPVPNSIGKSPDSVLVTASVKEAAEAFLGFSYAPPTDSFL

Row | SMILES | Ki
1 | COc1ccc(CNc2c(Nc3ccncc3)c(=O)c2=O)c(OC)c1 | > 10 µM
2 | O=C(c1cc(-c2ccc3[nH]ncc3c2)on1)N1CCCCC1 | > 10 µM
3 | O=C1Nc2ccccc2Nc2nnc(Cl)cc21 | 5.01 µM
4 | Nc1ncnc2c1N=C(c1ccc(NC(=O)Nc3cc(C(F)(F)F)ccc3F)cc1)CCN2 | 2.51 µM
5 | N[C@H](COc1cncc(-c2ccc3c(c2)CC(=O)N3)c1)Cc1c[nH]c2ccccc12 | 1.26 µM
6 | Cc1cc(OC2CCCC2)c(NC(=O)Nc2cnc(C#N)cn2)cc1Cl | > 10 µM
7 | Cc1cc2cc(-c3csc4c(-c5cccc(S(C)(=O)=O)c5)cnc(N)c34)ccc2[nH]1 | > 10 µM
8 | N[C@H](COc1cc(/C=C/c2ccncc2)cnc1Cl)Cc1c[nH]c2ccccc12 | > 10 µM
9 | Cc1nc(COc2ccccc2Cl)sc1-c1ccnc(N)n1 | 1 µM
10 | CNC(=O)c1cnc(N)c2c(-c3ccc(NC(=O)Nc4cc(C)ccc4F)cc3)csc12 | 5.01 µM
11 | Cc1cnc(-c2cnc(NCCNc3ccc(C#N)cn3)nc2-c2ccc(Cl)cc2Cl)[nH]1 | > 10 µM
12 | CCOc1nc(NC(C)=O)cc(N)c1C#N | > 10 µM
13 | COCCO[C@H]1CC[C@H](n2nc(-c3ccc(Nc4nc5cc(C)cc(Cl)c5o4)cc3)c3c(N)ncnc32)CC1 | > 10 µM
14 | COc1cc2c(cc1F)C(c1ccccc1Cl)=Nc1c(n[nH]c1C)N2 | 7.94 µM
15 | O=c1ncn2nc(Sc3ccc(F)cc3F)ccc2c1-c1c(Cl)cccc1Cl | > 7.94 µM
16 | O=C1Nc2ccccc2Nc2nnc(I)cc21 | 3.98 µM
17 | Cn1cncc1C(OCc1c(-c2ccc(OC(F)(F)F)cc2)cc(C#N)c(=O)n1C)c1ccc(C#N)cc1 (configuration not stated) | > 10 µM
18 | COCCNc1nccc(-c2c(-c3ccc(F)cc3)nc3cnccn23)n1 | > 10 µM
19 | Cc1cccc(NC(=O)Nc2ccc(-c3csc4c(-c5cn[nH]c5)cnc(N)c34)cc2)c1 | > 10 µM
20 | O=C1Nc2cc(CCOc3ccc(N4CCOCC4)cc3)ccc2Nc2cc(-c3cn(Cc4cc(F)c(F)c(F)c4)c4cnccc34)ccc21 | > 10 µM
21 | CN(c1ncccc1CNc1nc(Nc2ccc3c(c2)CC(=O)N3)ncc1C(F)(F)F)S(C)(=O)=O | 2.51 µM
22 | Cc1ccc(NC(=O)Nc2ccc(-c3csc4c(-c5cnn(C(C)C(=O)N(C)C)c5)cnc(N)c34)cc2)cc1 (configuration not stated) | > 10 µM
23 | CC(=O)N1CCN(C2CCC(n3nc(-c4ccc(NC(=O)c5cc6ccccc6n5C)cc4)c4c(N)ncnc43)CC2)CC1 (configuration not stated) | > 10 µM
24 | OCCCn1cnc(-c2ccc(F)cc2)c1-c1ccncc1 | > 10 µM
25 | CNC(=O)/C=C/c1cnc(N)c2c(-c3ccc4sc(C)nc4c3)csc12 | > 10 µM
26 | NCCOc1cncc(/C=C/c2ccncc2)c1 | > 10 µM
27 | CCN(CC)CC#Cc1ccc2c(c1)-c1[nH]nc(-c3ccc(C#N)nc3)c1C2 | > 10 µM

Row | SMILES | Ki
28 | CC[C@@H]1C(=O)N(C)c2cnc(Nc3ccc(C(=O)NC4CCCCC4)cc3OC)nc2N1C1CCCC1 | > 10 µM
29 | Nc1ncc(-c2ccoc2)c2scc(-c3ccc(NC(=O)Nc4cccc(F)c4)cc3)c12 | 6.31 µM
30 | COc1cc2cnc3c(c2cc1OC)C(=O)NC3=O | > 10 µM
31 | N#Cc1ncc2nc1OCCCCCOc1cc(CCCO)c(Cl)cc1NC(=O)N2 | > 10 µM
32 | COc1ccc(-c2ccc(NC(=O)Nc3cc(F)cc(F)c3)cc2)c2c(N)noc12 | > 10 µM
33 | NCC1CCC(CNc2nc(NCc3ccccc3Cl)ncc2[N+](=O)[O-])CC1 (configuration not stated) | 5.01 µM
34 | O=c1[nH]c2cnc(-n3cnc4ccc(F)cc43)nc2n1[C@@H]1CCOc2c(F)cccc21 | > 10 µM
35 | Cc1cn2c(-c3ccnc(NCC(C)(C)CO)n3)c(-c3ccc(F)cc3F)nc2c(C)n1 | > 10 µM
36 | CCOc1ccc(NC(=O)Nc2ccc(-c3csc4c(-c5cnn(C)c5)cnc(N)c34)cc2)cc1 | > 10 µM
37 | O=c1[nH]c2sc3c(c2c2nc(-c4cccnc4)nn12)CCCC3 | > 10 µM
38 | CC(C)c1nnc2ccc(-c3c(-c4ccc(F)cc4F)nc4occn34)nn12 | > 10 µM
39 | CC(=O)N1CCC(Nc2nccc(-c3c(-c4ccc(F)cc4)nc4occn34)n2)CC1 | > 10 µM
40 | CCc1nccn2c(-c3ccnc(NCC(C)(C)O)n3)c(-c3ccc(F)cc3F)nc12 | > 10 µM
41 | NNc1cc(N2CCOCC2)nc(OCCc2ccccn2)n1 | > 10 µM
42 | CS(=O)(=O)N(Cc1ccc2[nH]c(=O)c3cccn3c2c1)C1CC1 | > 10 µM
43 | CCN(CC)CC#Cc1cnc(N)c2c(-c3ccc(NC(=O)Nc4cccc(C)c4)cc3)csc12 | > 10 µM
44 | CC(C)(CO)CNc1nccc(-c2c(-c3ccc(F)cc3)nc3cnccn23)n1 | > 10 µM
45 | CCOC(=O)c1cn(-c2ccc(O)cc2C)c2cc(-c3ccncc3)ccc2c1=O | > 10 µM
46 | NC(=O)c1c(OCc2c(F)cc(Br)cc2F)nsc1NC(=O)NCCCCN1CCCC1 | > 10 µM
47 | Cc1ccc(-n2nc(C)c3c(=O)c4cc(Cl)ccc4n(O)c32)cc1 | > 10 µM
48 | C#Cc1cc2c(cc1OC)-c1[nH]nc(-c3ccc(C#N)nc3)c1C2 | > 10 µM
49 | Nc1ncnn2ccc(C(=O)Nc3ccc(NC(=O)Nc4cccc(F)c4)cc3)c12 | > 10 µM
50 | COc1cc(Nc2ncc3c(n2)-c2ccc(Cl)cc2C(c2c(F)cccc2OC)=NC3)ccc1C(=O)O | > 10 µM
51 | CCOc1nc(NC(=O)Cc2cc(OC)ccc2OC)cc(N)c1C#N | > 10 µM
52 | CC(C)Cn1c(N)nc2c(F)cc(-c3c(-c4ccc(F)cc4)nc4sccn34)cc21 | > 10 µM
53 | CC(C)Oc1nccn2c(-c3ccnc(NCC(C)(C)O)n3)c(-c3ccc(F)cc3F)nc12 | > 10 µM
54 | C#Cc1cccc(Nc2ncnc3cc(OCCOC)c(OCCOC)cc23)c1 | > 10 µM

Results, then the compound that gave them:

Row | Ki | SMILES
55 | 0.501 µM | O=C(NCc1ccc(Cl)c(Cl)c1)Nc1ccc2[nH]ncc2c1
56 | > 7.94 µM | Cn1c(NC[C@@H](N)Cc2ccccc2)nc(-c2ccncc2)c(-c2ccc3ccccc3c2)c1=O
57 | 1.58 µM | CCCC(=O)Nc1n[nH]c2ccc(-c3nnn(Cc4ccccc4)c3-c3ccccc3)cc12
58 | > 10 µM | O=c1[nH]c2ccc(Cl)cc2c(-c2ccccc2)c1C1=NNC(c2ccccc2)C1 (configuration not stated)
59 | 6.31 µM | Cc1cccc(NC(=O)Nc2ccc(NC(=O)c3csc4ncnc(N)c34)cc2)c1
60 | 3.98 µM | COc1cc(/C=C2\SC(=O)NC2=O)ccc1O
61 | 3.98 µM | Cc1n[nH]c2sc(C(=O)NCCc3ccc(Cl)cc3)cc12
62 | > 10 µM | CCOC(=O)C1=C(N)n2c(s/c(=C\c3cccs3)c2=O)=C(C(N)=O)C1c1cccs1 (configuration not stated)
63 | 5.01 µM | COc1cc(/C=C(\C#N)c2nc3cc(C)ccc3[nH]2)c(Br)cc1O
64 | > 10 µM | COc1cccc(-c2cc3c(=O)[nH]c4ccccc4n3c2)c1
65 | > 10 µM | COc1ccc(CNc2c(Nc3ccc4[nH]ncc4c3)c(=O)c2=O)cc1
66 | > 10 µM | O=C(O)c1ccc(N2C(=O)c3ccccc3C2=O)cc1O
67 | > 10 µM | Nc1ccc(-c2cncc(OC[C@@H](N)Cc3c[nH]c4ccccc34)c2)cc1C(=O)c1cccc(Cl)c1
68 | 1.26 µM | NS(=O)(=O)c1cccc(Nc2ncc3ccn(-c4ccccc4)c3n2)c1
69 | > 10 µM | Cc1cc(C)c(C)c(OCCCc2c(C(=O)O)[nH]c3c(-c4ccccc4C)cccc23)c1
70 | > 10 µM | CNS(=O)(=O)c1ccccc1Nc1nc(Nc2cc(N3CCN(C(C)=O)CC3)ccc2OC)ncc1Br
71 | > 10 µM | O=C(Cc1ccc(Cl)cc1)Nc1[nH]nc2c1CCC2
72 | > 10 µM | O=C(Nc1ccc(CO)cc1)c1cnn2c(-c3ccccc3)ccnc12
73 | 3.16 µM | N[C@@H](Cc1c[nH]c2ccccc12)C(=O)Nc1cncc(/C=C/c2ccncc2)c1
74 | > 10 µM | COc1ccc(/C=C2/S/C(=N/c3ccccc3)NC2=O)cc1OC
75 | > 10 µM | CN(C)C(=O)Nc1ccc2nc(-c3ccco3)c(-c3ccco3)nc2c1
76 | 1 µM | Cc1cccc(NC(=O)Nc2ccc(-c3cccc4[nH]nc(N)c34)cc2)c1
77 | > 10 µM | Nc1c(-c2ccccc2)c2cc(Cl)ccc2[nH]c1=O
78 | 6.31 µM | O=C(N[C@H](CO)Cc1ccccc1)c1ccc(-c2ccncc2)cc1
79 | > 10 µM | O=C(c1cccc(-c2cnc3[nH]ccc3c2)c1)N1CCOCC1
80 | 0.0631 µM | O=C(Nc1n[nH]c2ccc(-c3cn(Cc4ccccc4)nn3)cc12)c1ccccc1
81 | > 10 µM | Cc1ccc(CNc2c(Nc3ccncc3)c(=O)c2=O)cc1C

Row | Ki | SMILES
82 | > 10 µM | Cc1cccc(NC(=O)Nc2ccc(-c3cccc(C(N)=O)c3)cc2)c1
83 | > 10 µM | CC1=NN(c2ccc(C(=O)O)cc2)C(=O)/C1=C/c1c(C)c(C#N)c2nc3ccccc3n2c1O
84 | 0.2 µM | COc1cccc([C@@H](C)NC(=O)c2ccc(-c3ccncc3C)cc2)c1
85 | > 10 µM | Cc1nn(C)c(C)c1-c1cccc2c(CCCOc3cccc4ccccc34)c(C(=O)O)[nH]c12
86 | > 10 µM | N#Cc1cnc(NC(=O)Nc2ccc3cc(C(=O)O)ccc3c2)cn1
87 | 6.31 µM | CN1CCC(NC(=O)c2cc3c(-c4ccccc4)n[nH]c3s2)CC1
88 | 0.631 µM | COc1cccc([C@@H](C)NC(=O)c2ccc(-c3ccncc3F)cc2OC)c1
89 | 3.16 µM | CNC(=O)c1cc2c(-c3ccccc3F)n[nH]c2s1
90 | > 10 µM | C[C@@H](Nc1nccc(-c2c(-c3ccc(F)cc3)nc3occn23)n1)c1ccccc1
91 | > 7.94 µM | OCCCNc1ncnc2[nH]cc(-c3ccccc3)c12
92 | 2.51 µM | Cn1cc(/C=C2\C(=O)Nc3cccnc32)c2ccccc21
93 | > 10 µM | OCCNc1cc2cc(-c3ccncc3)ccc2cn1
94 | > 10 µM | O=C(NNC(=S)Nc1ccc(Cl)cc1)C(O)(c1ccccc1)c1ccccc1
95 | 0.251 µM | NC(=O)c1ccc(-c2c[nH]c3nccc(Cl)c23)cc1
96 | > 10 µM | O=C(N[C@H](CO)Cc1ccccc1)c1ccc(-c2ccncc2)cc1F
97 | 0.631 µM | Oc1ccc(-c2n[nH]c(Nc3cccc(Cl)c3)c2-c2ccc(O)cc2)cc1
98 | > 10 µM | O=C(Nc1cccc(C(F)(F)F)n1)Nc1ccnc2c(Cl)c(Cl)ccc12
99 | > 10 µM | Cc1c(-c2cccc(OCc3ccccc3)c2)c2c(N)ncnc2n1[C@H]1C[C@H](CN2CCCC2)C1
100 | > 10 µM | Oc1ccc(Nc2ncnc3scc(Cl)c23)cc1
101 | > 10 µM | O=C(NCc1ccccc1)c1cccc(-c2cnc3[nH]ccc3c2)c1
102 | > 10 µM | N#C/C(=C\c1ccc(O)c(O)c1)C(=O)NCc1ccccc1
103 | > 10 µM | CCOC(=O)C1=c2s/c(=C/c3ccco3)c(=O)n2C(N)=C(C#N)C1c1ccco1 (configuration not stated)
104 | > 10 µM | O=C(NC(CO)Cc1ccc(Cl)cc1)c1ccc(-c2ccncc2)cc1 (configuration not stated)
105 | 0.501 µM | O=C(O)c1ccccc1Nc1ccnc(Nc2ccc3[nH]ncc3c2)n1
106 | > 10 µM | O=S(=O)(O)c1ccc(NCc2ccc3c(c2)OCO3)c2c(O)cccc12
107 | > 10 µM | CCCC(=O)Nc1nn(C(=O)CC)c2nc3ccccc3cc12

Reference: the kinase profiling compilation of Christmann-Franck et al. (2016)
